Measurements as given in ChEMBL document CHEMBL5058564, “EUbOPEN Chemogenomics Library 2 (Incucyte)” (2022).

Columns and labels:
Type in all cases: toxicity, cell-based
U2OS = assay: Incucyte cell viability with U2OS; conditions: human, 10 µM, compound concentration 10 uM
Fibroblast = assay: Incucyte cell viability with human fibroblast; conditions: 10 µM, compound concentration 10 uM
HEK-293T = assay: Incucyte cell viability with HEK293T; conditions: human, 10 µM, compound concentration 10 uM
[1] = 0 h, replicate number 1, timepoint 0 hours
[2] = 6 h, replicate number 1, timepoint 6 hours
[3] = 12 h, replicate number 1, timepoint 12 hours
[4] = 18 h, replicate number 1, timepoint 18 hours
[5] = 18 h, replicate number 2, timepoint 18 hours
[6] = 24 h, replicate number 1, timepoint 24 hours
[7] = 0 h, replicate number 2, timepoint 0 hours
[8] = 24 h, replicate number 2, timepoint 24 hours
[9] = 6 h, replicate number 2, timepoint 6 hours
[10] = 12 h, replicate number 2, timepoint 12 hours
Further: unitless GR value; below 1 slowed growth and below 0 cell loss.

| SMILES | Growth Rate (U2OS; [1]) | Growth Rate (U2OS; [2]) | Growth Rate (U2OS; [3]) | Growth Rate (U2OS; [4]) | Growth Rate (U2OS; [5]) | Growth Rate (Fibroblast; [7]) | Growth Rate (Fibroblast; [2]) | Growth Rate (Fibroblast; [3]) | Growth Rate (Fibroblast; [4]) | Growth Rate (Fibroblast; [6]) | Growth Rate (HEK-293T; [7]) | Growth Rate (HEK-293T; [2]) | Growth Rate (HEK-293T; [3]) | Growth Rate (HEK-293T; [4]) | Growth Rate (HEK-293T; [6]) | Growth Rate (U2OS; [8]) | Growth Rate (Fibroblast; [1]) | Growth Rate (Fibroblast; [9]) | Growth Rate (Fibroblast; [10]) | Growth Rate (Fibroblast; [5]) | further results |
| --- | --- | --- | --- | --- | --- | --- | --- | --- | --- | --- | --- | --- | --- | --- | --- | --- | --- | --- | --- | --- | --- |
| CS(=O)(=O)N1CCCC(NC(=O)[C@H](CCC2CCCCC2)NC(=O)c2ccc(CNc3ncnc4c3nnn4-c3ccccc3)cc2)C1 (stereo not given in full) [SR-301] | 0.63 | 0.78 | 0.94 | 0.6 | 0.89 | -0.06 | -0.33 | -0.47 | -0.48 | -0.39 | 0.12 | -0.5 | -0.33 | -0.23 | -0.11 | – | – | – | – | – | Growth Rate (U2OS; [6]): 0.6 |
| O=C(O)C(F)(F)F.O=C1NC(=O)/C(=C/c2c[nH]c(=O)c(-c3ccc(N4CCNCC4)nc3)c2)S1 | -0.39 | 0.45 | 0.51 | 1 | – | – | – | – | – | – | 0.65 | – | – | – | – | 0.94 | 0.44 | 0.04 | 0.66 | 0.64 | Growth Rate (U2OS; [7]): -1; Growth Rate (Fibroblast; [8]): 0.71; Growth Rate (HEK-293T; [1]): 0.87; Growth Rate (HEK-293T; [9]): 0.18; Growth Rate (HEK-293T; [10]): 0.7; Growth Rate (HEK-293T; [5]): 0.92 |
| Cc1onc(-c2ccccc2Cl)c1C(=O)N(C)c1ccc(Cl)cc1 | – | – | – | – | 0.85 | 0.86 | – | – | – | – | 0.62 | – | – | – | – | 0.96 | -0.53 | – | – | – | Growth Rate (U2OS; [9]): 0.56; Growth Rate (U2OS; [10]): 0.67 |
| CCOc1c2c(c(OCC)c3ncccc13)CN(c1ccc(CS(=O)(=O)NC(=O)Cc3ccccc3OC)cc1C)C2=O | -0.69 | – | – | – | 1 | 0.58 | 0.32 | 0.49 | 0.23 | -0.06 | 0.82 | 0.48 | 0.83 | 0.9 | 0.87 | – | 0.27 | -0.34 | -0.12 | -0.18 | Growth Rate (U2OS; [9]): 0.75; Growth Rate (Fibroblast; [8]): -0.4; Growth Rate (HEK-293T; [5]): 1 |
| CCCN(CCC)CCc1cccc2c1CC(=O)N2.Cl [ROPINIROLE HYDROCHLORIDE] | 0.4 | 0.57 | 0.77 | 0.76 | – | -0.1 | – | 0.31 | 0.67 | 0.64 | 0.1 | 0.94 | – | – | – | – | 0.73 | – | – | – | Growth Rate (HEK-293T; [1]): 0.6 |
